Each structure is given as a SMILES string. Where a name gives a salt, the structure may show the parent alone.

Usually Ki stands for a measure of affinity in units of concentration, obtained from inhibition or displacement.

The target in one data set is PDE1 isoforms. Description: PDE1 potency and selectivity versus other PDE families. It counts as biochemical. As to conditions: span of Table 1 values; read-out: Ki for inhibition of recombinant or bovine PDE1 enzymes.
Data set [1] deals with Na^+ channel (site 2), sodium channel. The experiment in a line: Off-target binding, General SEP II panel. The following applies: 10 μM ITI-214, mean of n = 2.
Data set [2] deals with Ca^2+ channel (L, DHP site). The experiment in a line: Off-target binding, General SEP II panel. As to conditions: 10 μM ITI-214, mean of n = 2.
In data set [3] the target is T1, DA transporter (h), dopamine (Homo sapiens, UniProt Q01959).
T1 construct: Caliper Life Sciences (contract screen)
T1 sequence (Q01959 whole entry): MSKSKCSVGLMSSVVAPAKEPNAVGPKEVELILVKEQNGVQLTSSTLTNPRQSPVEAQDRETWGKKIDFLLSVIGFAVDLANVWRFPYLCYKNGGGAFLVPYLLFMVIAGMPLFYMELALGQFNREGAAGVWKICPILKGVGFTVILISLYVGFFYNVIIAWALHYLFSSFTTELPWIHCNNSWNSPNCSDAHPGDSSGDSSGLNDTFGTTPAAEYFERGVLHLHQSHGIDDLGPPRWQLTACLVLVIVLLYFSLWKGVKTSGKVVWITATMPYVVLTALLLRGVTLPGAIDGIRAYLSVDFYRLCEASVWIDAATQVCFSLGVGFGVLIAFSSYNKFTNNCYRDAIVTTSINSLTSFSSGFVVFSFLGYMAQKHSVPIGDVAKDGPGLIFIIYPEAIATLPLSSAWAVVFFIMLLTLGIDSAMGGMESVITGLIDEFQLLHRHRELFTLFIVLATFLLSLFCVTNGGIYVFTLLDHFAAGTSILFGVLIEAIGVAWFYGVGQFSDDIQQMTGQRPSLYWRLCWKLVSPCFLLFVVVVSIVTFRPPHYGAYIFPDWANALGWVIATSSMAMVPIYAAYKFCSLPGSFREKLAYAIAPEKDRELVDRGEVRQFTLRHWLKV
The experiment in a line: Off-target binding, General SEP II panel. The following applies: 10 μM ITI-214, mean of n = 2.

Data set [4] deals with T2, Potassium channel I[Kr], (hERG) (Homo sapiens, UniProt Q12809).
T2 construct: Caliper Life Sciences (contract screen)
T2 sequence (Q12809 whole entry): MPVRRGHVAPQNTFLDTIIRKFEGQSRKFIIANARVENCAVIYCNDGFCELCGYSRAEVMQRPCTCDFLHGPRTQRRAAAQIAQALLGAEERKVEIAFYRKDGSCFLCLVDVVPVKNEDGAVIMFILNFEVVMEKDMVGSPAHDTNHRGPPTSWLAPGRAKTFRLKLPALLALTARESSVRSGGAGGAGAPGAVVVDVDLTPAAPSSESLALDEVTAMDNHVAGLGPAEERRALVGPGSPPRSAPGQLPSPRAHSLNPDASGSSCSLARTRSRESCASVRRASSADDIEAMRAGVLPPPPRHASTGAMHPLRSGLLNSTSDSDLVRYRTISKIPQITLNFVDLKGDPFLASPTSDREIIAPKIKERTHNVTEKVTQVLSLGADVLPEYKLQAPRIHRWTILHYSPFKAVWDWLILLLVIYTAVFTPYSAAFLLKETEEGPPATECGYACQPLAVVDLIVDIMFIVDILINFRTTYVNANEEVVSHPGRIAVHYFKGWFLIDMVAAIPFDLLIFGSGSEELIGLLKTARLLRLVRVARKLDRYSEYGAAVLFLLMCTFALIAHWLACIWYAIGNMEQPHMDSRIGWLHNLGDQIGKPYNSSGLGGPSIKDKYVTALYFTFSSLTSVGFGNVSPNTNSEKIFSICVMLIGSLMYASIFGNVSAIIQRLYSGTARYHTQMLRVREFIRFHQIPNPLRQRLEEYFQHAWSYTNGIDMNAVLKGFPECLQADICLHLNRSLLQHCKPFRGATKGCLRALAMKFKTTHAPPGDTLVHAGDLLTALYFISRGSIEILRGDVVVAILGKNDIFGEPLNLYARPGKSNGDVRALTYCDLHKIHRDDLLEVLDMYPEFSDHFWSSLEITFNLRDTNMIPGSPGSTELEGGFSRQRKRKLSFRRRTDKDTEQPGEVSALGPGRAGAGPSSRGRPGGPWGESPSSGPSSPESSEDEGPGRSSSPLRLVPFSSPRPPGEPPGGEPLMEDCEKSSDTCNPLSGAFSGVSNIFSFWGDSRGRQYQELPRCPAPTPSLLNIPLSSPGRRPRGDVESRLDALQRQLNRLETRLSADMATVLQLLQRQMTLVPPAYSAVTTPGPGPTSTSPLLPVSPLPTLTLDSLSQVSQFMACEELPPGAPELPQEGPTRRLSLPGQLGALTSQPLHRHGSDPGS
The experiment in a line: Off-target binding, General SEP II panel. As to conditions: 10 μM ITI-214, mean of n = 2.

The target of another data set is T3, H3 (h), histamine (Homo sapiens, UniProt Q9Y5N1).
T3 construct: Caliper Life Sciences (contract screen)
T3 sequence (Q9Y5N1 whole entry): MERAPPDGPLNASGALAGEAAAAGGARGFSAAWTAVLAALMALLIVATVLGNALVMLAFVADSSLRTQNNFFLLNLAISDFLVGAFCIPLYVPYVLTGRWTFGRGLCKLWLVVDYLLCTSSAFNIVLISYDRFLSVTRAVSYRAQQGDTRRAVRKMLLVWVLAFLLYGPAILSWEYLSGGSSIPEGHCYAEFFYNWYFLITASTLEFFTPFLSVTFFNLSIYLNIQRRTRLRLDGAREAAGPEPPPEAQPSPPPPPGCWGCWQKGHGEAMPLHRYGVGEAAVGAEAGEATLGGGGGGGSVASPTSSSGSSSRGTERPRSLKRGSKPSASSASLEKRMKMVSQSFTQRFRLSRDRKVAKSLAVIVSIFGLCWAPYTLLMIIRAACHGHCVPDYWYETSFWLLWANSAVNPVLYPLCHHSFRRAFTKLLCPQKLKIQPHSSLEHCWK
The experiment in a line: Off-target binding, General SEP II panel. The following applies: 10 μM ITI-214, mean of n = 2.

The target in the next data set is T4, B2 (H), bradykinin (Homo sapiens, UniProt P30411).
T4 construct: Caliper Life Sciences (contract screen)
T4 sequence (P30411 1-391): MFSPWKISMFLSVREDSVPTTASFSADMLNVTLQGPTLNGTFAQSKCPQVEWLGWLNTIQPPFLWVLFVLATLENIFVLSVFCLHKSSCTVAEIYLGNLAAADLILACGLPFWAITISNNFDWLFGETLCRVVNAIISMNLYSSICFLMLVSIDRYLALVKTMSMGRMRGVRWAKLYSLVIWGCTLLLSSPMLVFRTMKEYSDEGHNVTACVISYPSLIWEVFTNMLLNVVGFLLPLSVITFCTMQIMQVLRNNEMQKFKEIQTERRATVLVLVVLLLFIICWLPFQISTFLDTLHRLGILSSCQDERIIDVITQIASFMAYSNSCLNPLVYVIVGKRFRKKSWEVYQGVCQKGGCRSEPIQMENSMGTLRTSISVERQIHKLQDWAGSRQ
Description: Off-target binding, General SEP II panel. As to conditions: 10 μM ITI-214, mean of n = 2.

For data set [5], the system named is conditioned avoidance responding in male Wistar rats. Description: Conditioned avoidance response (CAR). It counts as in vivo, rat. On the procedure: The drug was administered, per os (po), by gavage to rats in a volume of 2 ml/kg body weight. Oral dosing solutions were prepared fresh daily. […] The pH of the dosing solution was adjusted to ~pH 5.5 by dropwise addition of 0.1 N NaOH in saline and volume adjusted by addition of saline in preparation for intraperitoneal (ip) dosing. […] Control treatments were always the vehicle solutions of the corresponding drugs.
Avoidance behavior, escape behavior, escape failures, and inter-trial crosses were recorded, as described here: (1) avoidance (response to CS within 10 s); (2) escape (response to CS + UCS); and (3) escape failure (if the rat was unable to respond to the shock by moving into the opposite compartment within 50 s, the trial was terminated). The inter-trial interval (end of trial to start of new trial) varied randomly between 20 and 40 s. Rats were trained for five consecutive days and adapted to the shuttle box 5 min before each training session. Training sessions consisted of about 20 trials, randomly distributed over 15 min. Only rats that performed at least 90 % avoidance on the last day of training were included in the experiments. All subsequent test sessions were preceded by a pre-test to verify continued performance in the paradigm. Pre-tests and test sessions consisted of approximately ten trials, each randomly distributed over a 7.5-min period. […] Experimental days were always separated by at least two non-experimental days. Experimental tests were separated by at least 2 days to insure drug washout.
Results from the conditioned avoidance responding (CAR) protocol were analyzed using non-parametric procedures.

Turning to `CN1C(=O)c2c(nn(Cc3ccc(-c4cccc(F)n4)cc3)c2Nc2ccccc2)N2C1=N[C@@H]1CCC[C@@H]12` [ITI-214, (6aR,9aS)-2-(4-(6-fluoropyridin-2-yl)benzyl)-5-methyl-3-(phenylamino)-5,6a,7,8,9,9a-hexahydrocyclopenta-[4,5]imidazo[1,2-a]pyrazolo[4,3-e]pyrimidin-4-(2H)-one phosphate salt], the Ki on PDE1 isoforms is 0.034 to 0.058 nM. The “% Binding” value in data set [1] stood at 88.44%; in data set [2], 73.28%; in data set [3], 58.70%; in data set [4], 35.09%; on H3 (h), histamine it was 32.54%; at B2 (H), bradykinin it was 30.79%. The “effect on percent avoidances” value in data set [5] (1 mg/kg po alone) was “no significant effect”. In data set [5] (CAR paradigm), the “effect on number of escape failures” value is listed as “Neither risperidone nor ITI-214 had significant effects”. In data set [5] (ITI-214 1 mg/kg po with risperidone 0.8 mg/kg i.p.), the “effect on avoidance behavior of rats given risperidone” value was “did not affect avoidance behavior”.
